Experimental data taken from US3947411A, “Novel 1-aryl-2-arylalkyl-3-or-4-[4'-(substituted-alkyl)piperazino-1']butanols- 2-or-butenes-1, and methods of manufacture thereof” (Warner-Lambert Company, priority 1972, dated 1976).
Converted amounts (≈) assume the structure as drawn.

Columns and labels:
[1] = system: Candida albicans; test: Agar well inhibition zone test against fungi, Candida albicans (Table II); details: quantity per well giving inhibition zone (500, 50, 5 μg tested); Sabouraud agar, 28°, 48 hours
[2] = system: Mycobacterium tuberculosis II 37 RV (typus humanus); test: Efficacy against Mycobacteria, Tb-broth dilution series (Table I); format: cell-based; details: 504 h, Dubos Tb-broth + 10% bovine serum, 21 days, read-out: Minimum Inhibitory Concentration
[3] = system: Staphylococcus aureus; test: Agar well inhibition zone test against bacteria, Staphylococcus aureus (Table III); details: quantity per well giving inhibition zone (500, 50, 5 μg tested); nutrient agar, 37°, 24 hours
Method: The efficacy of the compounds against bacteria was tested as follows:
The test organisms, in this case Staphylococcus aureus and Escherichia coli, were inoculated on nutrient agar as described in Example 12, wells were punched, and the solutions of the compounds were transferred to fill the wells. The quantity of compound in the wells amounted again to 500 μg, 50 μg and 5 μg.
After incubation a 37° for 24 hours the quantity of compound was determined at which an inhibition of the organism's growth, in the form of an inhibition zone around the corresponding well, occurred.

[4] = system: C. albicans; test: Minimum inhibitory concentration for fungi in presence of serum, C. albicans (Table VI); format: cell-based; details: Candida albicans; Sabouraud nutrient broth + 10% bovine serum, 28°C, 48 hours
[5] = system: Staph. aureus; test: Minimum inhibitory concentration for bacteria, tube dilution, Staph. aureus (Table V); details: Staphylococcus aureus, 48 h, read-out: Minimum Inhibitory Concentration, Staph. aureus
Method: A tube dilution series of the respective compound in nutrient broth whose individual tubes contained concentrations of 1024 μg, 512 μg, 256 μg, 128 μg, 64 μg, 32 μg, 1 μg, 8 μg, 4 μg, 2 μg, 1.1 μg and 0.5 μg/ml was prepared and inoculated with a photometrically standardized suspension of the test organisms.

[6] = system: Escherichia coli; test: Agar well inhibition zone test against bacteria, Escherichia coli (Table III); details: quantity per well giving inhibition zone (500, 50, 5 μg tested); nutrient agar, 37°, 24 hours
[7] = system: C. albicans; test: Minimum inhibitory concentration for fungi, tube dilution, C. albicans (Table IV); details: Candida albicans, 48 h, read-out: Minimum Inhibitory Concentration, C. albicans
Method: (§1) A tube dilution series of the respective compound in Sabouraud nutrient broth, whose individual tubes contained concentrations of 1024 μg, 512 μg, 256 μg, 128 μg, 64 μg, 32 μg, 16 μg, 8 μg, 4 μg, 2 μg, 1.1 μg and 0.5 μg/ml, was prepared and inoculated with a photometrically standardized suspension of the test organisms or the spores thereof.

[8] = system: Aspergillus niger; test: Agar well inhibition zone test against fungi, Aspergillus niger (Table II); details: quantity per well giving inhibition zone (500, 50, 5 μg tested); Sabouraud agar, 28°, 48 hours
Method: The efficacy of the compounds against fungi was tested as follows:
The test organisms, in this case the blastomycete Candida albicans and the mold Aspergillus niger, were inoculated onto Sabouraud agar plates by pouring a photometrically adjusted standard suspension of organisms on the plate. After inoculation, wells with a diameter of 5.0 mm were punched in the agar, and filled with 50 ul of the compound solution mentioned before. The quantity of compound applied thus amounted to 500 μg, 50 μg and 5 μg. After incubation at 28° for 48 hours, the quantity of compound was determined at which an inhibition of the organism's growth, in form of an inhibition zone around the corresponding well, was present.

[9] = system: A. niger; test: Minimum inhibitory concentration for fungi, tube dilution, A. niger (Table IV); details: Aspergillus niger, 48 h, read-out: Minimum Inhibitory Concentration, A. niger
Method: as §1

[10] = system: A. niger; test: Minimum inhibitory concentration for fungi in presence of serum, A. niger (Table VI); format: cell-based; details: Aspergillus niger; Sabouraud nutrient broth + 10% bovine serum, 28°C, 48 hours
[11] = Solubility in water; format: physicochemical; details: hydrochlorides or oxalates, read-out: solubilities (in water)
In short: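 Water solubility given for the hydrochloride salts of most compounds and for the oxalate salts of a few.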

Q: For `CC(N1CCN(CCN2CCCC2)CC1)C(O)(Cc1ccccc1)Cc1ccccc1` (stereo not drawn) [III, 1-phenyl-2-benzyl-3-[4'-(β-pyrrolidino-ethyl)-piperazino-1']-butanol-2], which “Inhibition Area at μg, Cand. albicans” value [1] is on record?
A: 50 µg

Q: And the MIC [2]?
A: 50 µg/mL

Q: And the “Inhibition Area at μg, Staph. aureus” value [3]?
A: 50 µg

Q: And the MIC [4]?
A: 64 µg/mL

Q: What about the MIC [5] of the same compound?
A: 512 µg/mL (≈ 1210 µM)

Q: And the “Inhibition Area at μg, E. coli” value [6]?
A: 500 µg

Q: What about the MIC [7] of the same compound?
A: 32 µg/mL (≈ 75.9 µM)

Q: What about the “Inhibition Area at μg, Asp. niger” value [8] of the same compound?
A: 50 µg

Q: And the MIC [9]?
A: 64 µg/mL (≈ 152 µM)

Q: What about the MIC [10] of the same compound?
A: 128 µg/mL

Q: And the solubility [11]?
A: 50 mg/mL (≈ 119000 µM)

Q: With `Cc1cccc(CC(O)(Cc2cccc(C)c2)C(C)N2CCN(C)CC2)c1` (stereo not drawn) [IL, 1-m-tolyl-2-(m-methyl-benzyl)-3-(4'-methyl-piperazino-1')-butanol-2] as the compound, how does the “Inhibition Area at μg, Cand. albicans” value [1] read?
A: 50 µg

Q: What about the MIC [2] of the same compound?
A: 100 µg/mL

Q: And the “Inhibition Area at μg, Staph. aureus” value [3]?
A: 50 µg

Q: And the MIC [4]?
A: 256 µg/mL

Q: And the MIC [5]?
A: 128 µg/mL (≈ 349 µM)

Q: And the “Inhibition Area at μg, E. coli” value [6]?
A: 500 µg

Q: What about the MIC [7] of the same compound?
A: 32 µg/mL (≈ 87.3 µM)

Q: And the “Inhibition Area at μg, Asp. niger” value [8]?
A: 50 µg

Q: And the MIC [9]?
A: 32 µg/mL (≈ 87.3 µM)

Q: And the MIC [10]?
A: 128 µg/mL

Q: What about the solubility [11] of the same compound?
A: 50 mg/mL (≈ 136000 µM)

Q: With `CC(N1CCN(CCN2CCOCC2)CC1)C(O)(Cc1ccccc1)Cc1ccccc1` (stereo not drawn) [V, 1-phenyl-2-benzyl-3-[4'-(β-morpholino-ethyl)-piperazino-1']-butanol-2] as the compound, how does the “Inhibition Area at μg, Cand. albicans” value [1] read?
A: 50 µg

Q: What about the MIC [2] of the same compound?
A: 100 µg/mL

Q: And the “Inhibition Area at μg, Staph. aureus” value [3]?
A: 50 µg

Q: What about the MIC [5] of the same compound?
A: 512 µg/mL (≈ 1170 µM)

Q: What about the “Inhibition Area at μg, E. coli” value [6] of the same compound?
A: 500 µg

Q: And the MIC [7]?
A: > 1020 µg/mL

Q: And the “Inhibition Area at μg, Asp. niger” value [8]?
A: 50 µg

Q: What about the MIC [9] of the same compound?
A: 64 µg/mL (≈ 146 µM)

Q: What about the MIC [10] of the same compound?
A: 256 µg/mL

Q: What about the solubility [11] of the same compound?
A: 50 mg/mL (≈ 114000 µM)

Q: For `CC(N1CCN(CCN2CCN(Cc3ccccc3)CC2)CC1)C(O)(Cc1ccccc1)Cc1ccccc1` (stereo not drawn) [XII, 1-phenyl-2-benzyl-3-{4'-[β-(4"-benzyl-piperazino-1")-ethyl]-piperazino-1'}-butanol-2], which “Inhibition Area at μg, Cand. albicans” value [1] is on record?
A: 5 µg

Q: And the MIC [2]?
A: 100 µg/mL

Q: What about the “Inhibition Area at μg, Staph. aureus” value [3] of the same compound?
A: 50 µg

Q: What about the MIC [4] of the same compound?
A: 256 µg/mL

Q: And the MIC [5]?
A: 64 µg/mL (≈ 121 µM)

Q: And the “Inhibition Area at μg, E. coli” value [6]?
A: 500 µg

Q: What about the MIC [7] of the same compound?
A: 64 µg/mL (≈ 121 µM)

Q: What about the “Inhibition Area at μg, Asp. niger” value [8] of the same compound?
A: 50 µg

Q: What about the MIC [9] of the same compound?
A: 16 µg/mL (≈ 30.4 µM)

Q: What about the MIC [10] of the same compound?
A: > 1020 µg/mL

Q: What about the solubility [11] of the same compound?
A: 100 mg/mL (≈ 190000 µM)

Q: For `CC(N1CCN(CCCN2CCCCC2)CC1)C(O)(Cc1ccccc1)Cc1ccccc1` (stereo not drawn) [XIX, 1-phenyl-2-benzyl-3-[4'-(γ-piperidinopropyl)-piperazino-1']-butanol-2], which “Inhibition Area at μg, Cand. albicans” value [1] is on record?
A: 5 µg

Q: What about the MIC [2] of the same compound?
A: 100 µg/mL

Q: What about the “Inhibition Area at μg, Staph. aureus” value [3] of the same compound?
A: 500 µg

Q: What about the MIC [4] of the same compound?
A: 16 µg/mL

Q: What about the “Inhibition Area at μg, E. coli” value [6] of the same compound?
A: 500 µg

Q: What about the MIC [7] of the same compound?
A: 16 µg/mL (≈ 35.6 µM)

Q: What about the “Inhibition Area at μg, Asp. niger” value [8] of the same compound?
A: 5 µg

Q: What about the MIC [9] of the same compound?
A: 32 µg/mL (≈ 71.2 µM)

Q: What about the MIC [10] of the same compound?
A: 32 µg/mL

Q: What about the solubility [11] of the same compound?
A: 100 mg/mL (≈ 222000 µM)

Q: Which “Inhibition Area at μg, Cand. albicans” value [1] does the source give for `CC(C(=Cc1ccccc1)Cc1ccccc1)N1CCN(CCN2CCCC2)CC1` (stereo not drawn) [XXIX, 1-phenyl-2-benzyl-3-[4'-(β-pyrrolidino-ethyl)-piperazino-1']-butene-1] here?
A: 50 µg

Q: And the MIC [2]?
A: 10 µg/mL

Q: What about the “Inhibition Area at μg, Staph. aureus” value [3] of the same compound?
A: 50 µg

Q: What about the MIC [4] of the same compound?
A: 128 µg/mL

Q: What about the MIC [5] of the same compound?
A: 128 µg/mL (≈ 317 µM)

Q: What about the “Inhibition Area at μg, E. coli” value [6] of the same compound?
A: 500 µg

Q: And the MIC [7]?
A: 8 µg/mL (≈ 19.8 µM)

Q: What about the “Inhibition Area at μg, Asp. niger” value [8] of the same compound?
A: 50 µg

Q: What about the MIC [9] of the same compound?
A: 16 µg/mL (≈ 39.6 µM)

Q: What about the MIC [10] of the same compound?
A: 32 µg/mL

Q: What about the solubility [11] of the same compound?
A: 100 mg/mL (≈ 248000 µM)

Q: Which results are given for `CC(C(=Cc1ccccc1)Cc1ccccc1)N1CCN(CCN2CCCCC2)CC1` (stereo not drawn) [XXX, 1-phenyl-2-benzyl-3-[4'-(β-piperidino-ethyl)-piperazino-1']-butene-1]?
A: Inhibition Area at μg, Cand. albicans [1]: 50 µg; MIC [2]: 50 µg/mL; Inhibition Area at μg, Staph. aureus [3]: 50 µg; MIC [4]: 256 µg/mL; MIC [5]: 128 µg/mL (≈ 306 µM); Inhibition Area at μg, E. coli [6]: 500 µg; MIC [7]: 16 µg/mL (≈ 38.3 µM); Inhibition Area at μg, Asp. niger [8]: 5 µg; MIC [9]: 32 µg/mL (≈ 76.6 µM); MIC [10]: 32 µg/mL; solubility [11]: 10 mg/mL (≈ 23900 µM)
